From patent US20140275094A1, “METHOD FOR TREATING PULMONARY ARTERIAL HYPERTENSION IN A PATIENT NOT HAVING IDIOPATHIC PULMONARY FIBROSIS” (GILEAD SCIENCES, INC., priority 2012, published 2014)
One block for each molecule: values may come before it.

Tests used:
[1] = Cumulative incidence of treatment-emergent serum aminotransferase abnormalities in clinical trials; type: in vivo, human
Description: The ambrisentan clinical development program included placebo-controlled and non-placebo-controlled studies. One Phase 2 study (AMB-220) and two Phase 3 studies (AMB-320 and AMB-321) were completed at the time of the NDA submission. Three ongoing studies (AMB-220-E, AMB-222, and AMB-320/321-E) provided additional data in both the original NDA and the 4-month safety update, and data from one additional ongoing study (AMB-323) were included in the 4-month safety update.
The cumulative incidence of aminotransferase elevations by severity, summarized as a percentage of the cumulative number of subjects who received ambrisentan in clinical trials, is provided in Table 1. The cumulative incidence of aminotransferase elevations>3×ULN (upper limit of the normal range) accompanied by total bilirubin>2×ULN was 0.3% (2 subjects, both with alternative causes for the liver function test (LFT) abnormalities); the associated mean exposure to ambrisentan was 112.5 weeks (maximum, 341.0 weeks). In comparison, during the 12-week placebo controlled trials, 1 patient (1/132, 0.7%) receiving placebo had elevated aminotransferases (both alanine transaminase (ALT) and aspartate transaminase (AST) were >5×ULN) along with elevated total bilirubin (>2×ULN).

[2] = Ambrisentan in subjects who discontinued bosentan/sitaxsentan due to aminotransferase elevations (AMB-222, AMB-323); type: in vivo, human; conditions: prior ERA discontinued for aminotransferase >3×ULN
Description: They were enrolled in studies AMB-222 (n=36) and AMB-323 (n=27). […] The remaining subjects in these studies (a total of 4 subjects) did have an aminotransferase level>3×ULN and are included in Table 1.

[3] = MGPS disproportionality analysis of FDA AERS spontaneous reports of hepatic events; design: species or system human; key to EBGM: ratio of observed to expected reports (independence assumption); conditions: for Count / EBGM: FDA AERS, 18 months post approval; for EB05: lower bound of 90% confidence interval of EBGM
Description: A disproportionality analysis was performed for ambrisentan and bosentan using information from the FDA Adverse Events Reporting System (AERS) spontaneous reporting database. […] The value of the EBGM reflects the ratio of the number of observed reports of a drug-adverse event combination with the number expected under an assumption of independence between the drugs and events in the database. […] In order to reduce the occurrence of false positives due to age group or gender influence, the safety reports were stratified by subject age group and gender. For each drug, the AERS data were analyzed for the 18-month period following the respective approval dates for ambrisentan and bosentan: 15 Jun. 2007 to 14 Dec. 2008 for ambrisentan and 21 Nov. 2001 to 20 May 2003 for bosentan. […] This threshold is generally accepted as a signal of disproportional reporting (Szarfman, et al., “Use of screening algorithms and computer systems to efficiently signal higher-than-expected combinations of drugs and events in the US FDA's spontaneous reports database.” Drug Safety 25, 381-392 (2002)). The comparator dataset in the calculations for ambrisentan and bosentan included data for all other drugs in the AERS database.

[4] = system: patients with PAH; experiment: Long-term follow-up of the two pivotal studies and open-label extension; type: in vivo, human; conditions: 2.5, 5 or 10 mg once daily, N=383
Description: Long-term Treatment of PAH: In long-term follow-up of patients who were treated with ambrisentan (2.5 mg, 5 mg, or 10 mg once daily) in the two pivotal studies and their open-label extension (N=383), Kaplan-Meier estimates of survival at 1, 2, and 3 years were 93%, 85%, and 79%, respectively. Of the patients who remained on ambrisentan for up to 3 years, the majority received no other treatment for PAH.

[5] = system: patients with IPF, with or without pulmonary hypertension (WHO Group 3); experiment: Randomized controlled study in idiopathic pulmonary fibrosis; type: in vivo
[6] = all clinical trials combined; cited from earlier work
[7] = system: human hepatocytes; conditions: cited from earlier work
[8] = target: T1, multidrug resistance protein 2 (MRP2) (Homo sapiens, UniProt Q92887); experiment: Inhibition of hepatic transporter MRP2, transfected Sf9 cells; type: cell-based
T1 construct: expressed in transfected cells; host or cells: Spodoptera frugiperda (Sf9) ovarian cells
Description: (§1) Inhibition constants (IC50) were measured for human bile salt export pump (BSEP), sodium taurocholate cotransporting polypeptide (NTCP), multidrug resistance protein 2 (MRP2), P-glycoprotein (Pgp), breast cancer resistance protein (BCRP), organic anion-transporting polypeptide 1B1 (OATP1B1), and OATP1B3 in transfected cell-lines. Known inhibitors were used as positive controls.

[9] = target: T2, P-glycoprotein (Pgp) (Homo sapiens, UniProt P08183); experiment: Inhibition of Pgp, transfected MDCKII cells; type: cell-based; conditions: human, transfected MDCKII cells
T2 construct: expressed in transfected cells; host or cells: Madin-Darby canine kidney strain II (MDCKII)
Description: as §1

[10] = >3 × ULN and total bilirubin > 2 × ULN, N = 707
[11] = Total > 3 × ULN, all subjects N = 707
[12] = Blood alkaline phosphate increased
[13] = Blood bilirubin unconjugated increased

T2 sequence (P08183 whole entry): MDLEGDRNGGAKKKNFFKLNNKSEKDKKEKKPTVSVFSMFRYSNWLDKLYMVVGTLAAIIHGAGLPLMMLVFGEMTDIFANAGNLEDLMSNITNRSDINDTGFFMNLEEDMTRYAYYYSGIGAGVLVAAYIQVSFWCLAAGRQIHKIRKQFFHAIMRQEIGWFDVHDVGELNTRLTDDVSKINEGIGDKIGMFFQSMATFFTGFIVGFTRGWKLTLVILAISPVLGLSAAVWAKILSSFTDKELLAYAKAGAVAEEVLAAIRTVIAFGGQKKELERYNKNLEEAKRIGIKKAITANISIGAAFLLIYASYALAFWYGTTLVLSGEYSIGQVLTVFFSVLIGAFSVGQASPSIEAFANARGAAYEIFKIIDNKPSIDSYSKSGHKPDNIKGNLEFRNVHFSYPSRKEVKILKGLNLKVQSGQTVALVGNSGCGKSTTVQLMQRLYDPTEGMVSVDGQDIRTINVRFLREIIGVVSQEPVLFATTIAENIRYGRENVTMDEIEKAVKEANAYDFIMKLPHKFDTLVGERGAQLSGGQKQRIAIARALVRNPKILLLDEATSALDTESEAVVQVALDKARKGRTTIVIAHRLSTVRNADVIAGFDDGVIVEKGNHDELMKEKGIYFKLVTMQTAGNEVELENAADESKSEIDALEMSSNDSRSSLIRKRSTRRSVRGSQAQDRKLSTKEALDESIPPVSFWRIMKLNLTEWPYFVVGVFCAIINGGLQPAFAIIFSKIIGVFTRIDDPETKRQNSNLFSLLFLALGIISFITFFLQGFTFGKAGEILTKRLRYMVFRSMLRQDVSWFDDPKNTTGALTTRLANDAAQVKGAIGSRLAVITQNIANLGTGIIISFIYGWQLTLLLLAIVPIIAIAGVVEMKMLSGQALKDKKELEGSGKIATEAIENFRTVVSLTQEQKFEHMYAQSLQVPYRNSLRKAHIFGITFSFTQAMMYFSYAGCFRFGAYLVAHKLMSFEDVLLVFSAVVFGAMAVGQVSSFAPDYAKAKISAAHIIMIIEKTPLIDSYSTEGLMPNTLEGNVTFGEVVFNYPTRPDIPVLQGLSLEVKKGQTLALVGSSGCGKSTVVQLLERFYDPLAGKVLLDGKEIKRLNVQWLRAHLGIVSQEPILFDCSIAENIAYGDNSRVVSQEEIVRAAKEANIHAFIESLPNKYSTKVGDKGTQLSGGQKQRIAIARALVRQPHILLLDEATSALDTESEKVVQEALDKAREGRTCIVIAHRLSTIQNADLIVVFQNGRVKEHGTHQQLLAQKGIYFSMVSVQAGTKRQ
T1 sequence (Q92887 whole entry): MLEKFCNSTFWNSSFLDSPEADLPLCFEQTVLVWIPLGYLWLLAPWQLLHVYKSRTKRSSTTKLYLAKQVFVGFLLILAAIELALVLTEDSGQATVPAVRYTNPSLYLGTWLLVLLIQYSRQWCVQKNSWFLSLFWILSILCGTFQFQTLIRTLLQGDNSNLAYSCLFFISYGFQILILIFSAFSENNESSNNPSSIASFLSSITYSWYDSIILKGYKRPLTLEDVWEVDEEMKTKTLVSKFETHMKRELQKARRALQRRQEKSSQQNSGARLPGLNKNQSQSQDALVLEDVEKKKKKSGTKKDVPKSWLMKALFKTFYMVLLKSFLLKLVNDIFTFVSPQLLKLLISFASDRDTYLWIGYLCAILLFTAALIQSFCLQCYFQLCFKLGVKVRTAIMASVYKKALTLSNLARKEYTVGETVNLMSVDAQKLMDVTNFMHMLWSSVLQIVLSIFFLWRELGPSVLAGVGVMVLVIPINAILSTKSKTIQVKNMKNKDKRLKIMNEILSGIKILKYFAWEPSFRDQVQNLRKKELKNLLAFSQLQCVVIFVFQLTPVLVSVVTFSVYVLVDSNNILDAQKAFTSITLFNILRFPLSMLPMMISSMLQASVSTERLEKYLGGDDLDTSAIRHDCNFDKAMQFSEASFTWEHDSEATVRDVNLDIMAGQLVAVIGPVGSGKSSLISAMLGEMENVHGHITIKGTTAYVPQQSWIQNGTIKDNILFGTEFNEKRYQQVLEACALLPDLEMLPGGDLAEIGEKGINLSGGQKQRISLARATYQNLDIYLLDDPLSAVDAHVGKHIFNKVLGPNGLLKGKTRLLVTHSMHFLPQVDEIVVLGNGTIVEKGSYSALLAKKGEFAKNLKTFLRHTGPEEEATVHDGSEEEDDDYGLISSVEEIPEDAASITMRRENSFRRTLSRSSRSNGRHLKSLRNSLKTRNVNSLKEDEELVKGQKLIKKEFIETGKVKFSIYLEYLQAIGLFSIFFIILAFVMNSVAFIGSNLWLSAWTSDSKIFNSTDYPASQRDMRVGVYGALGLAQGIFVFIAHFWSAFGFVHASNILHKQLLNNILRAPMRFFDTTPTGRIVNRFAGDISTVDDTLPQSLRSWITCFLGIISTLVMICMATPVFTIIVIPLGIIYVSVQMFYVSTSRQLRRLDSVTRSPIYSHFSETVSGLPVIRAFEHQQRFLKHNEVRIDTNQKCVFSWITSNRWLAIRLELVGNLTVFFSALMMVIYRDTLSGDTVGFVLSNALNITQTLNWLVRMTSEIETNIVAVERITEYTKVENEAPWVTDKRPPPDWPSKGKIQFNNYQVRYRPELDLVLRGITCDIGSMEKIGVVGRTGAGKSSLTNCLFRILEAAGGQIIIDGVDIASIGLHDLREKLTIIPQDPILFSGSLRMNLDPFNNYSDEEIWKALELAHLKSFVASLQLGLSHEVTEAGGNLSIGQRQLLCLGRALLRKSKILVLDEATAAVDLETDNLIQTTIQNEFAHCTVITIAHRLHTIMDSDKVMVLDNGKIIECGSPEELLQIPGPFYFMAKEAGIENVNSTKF

Structure (SMILES): COC(c1ccccc1)(c1ccccc1)[C@H](Oc1nc(C)cc(C)n1)C(=O)O [Ambrisentan, (25)-2-[(4,6-dimethylpyrimidin-2-yl)oxy]-3-methoxy-3,3-diphenylpropanoic acid]
ALT/AST elevations, patient number ([1]; >3 to ≦5 × ULN, N = 707): 25
ALT/AST elevations, patients (%) ([1]; >3 to ≦5 × ULN, N = 707): (3.5) %
ALT/AST elevations, patient number [1, 10]: 2
ALT/AST elevations, patients (%) [1, 10]: (0.3) %
ALT/AST elevations, patients (%) ([1]; >3 × ULN and total bilirubin > 2 × ULN, N = 707, listed as ambrisentan): 0.3%
ALT/AST elevations, patient number ([1]; >5 to ≦8 × ULN, N = 707): 1
ALT/AST elevations, patients (%) ([1]; >5 to ≦8 × ULN, N = 707): (0.1) %
ALT/AST elevations, patient number ([1]; >8 × ULN, N = 707): 9
ALT/AST elevations, patients (%) ([1]; >8 × ULN, N = 707): (1.3) %
ALT/AST elevations, patient number [1, 11]: 35
ALT/AST elevations, patients (%) [1, 11]: (5.0) %
subjects who did not experience aminotransferase elevations while receiving ambrisentan ([2]; AMB-222 (n=36)): 97%
subjects who did not experience aminotransferase elevations while receiving ambrisentan ([2]; AMB-323 (n=27)): 89%
Count ([3]; ALT increased): 3
EBGM ([3]; ALT increased): 1.55
Count ([3]; AST increased): 3
EBGM ([3]; AST increased): 1.63
Count ([3]; Ascites): 2
EBGM ([3]; Ascites): 1.80
Count ([3]; Bilirubin conjugated increased): 0
Count [3, 12]: 1
EBGM [3, 12]: 0.86
Count ([3]; Blood bilirubin increased): 0
Count [3, 13]: 0
Count ([3]; Hepatic congestion): 0
Count ([3]; Hepatic encephalopathy): 0
Count ([3]; Hepatic enzyme increased): 3
EBGM ([3]; Hepatic enzyme increased): 1.67
Count ([3]; Hepatic failure): 0
Count ([3]; Hepatic function abnormal): 0
Count ([3]; Hepatic infarction): 0
Count ([3]; Hepatic necrosis): 0
Count ([3]; Hepatic steatosis): 1
EBGM ([3]; Hepatic steatosis): 1.06
Count ([3]; Hepatitis acute): 0
Count ([3]; Hepatitis): 1
EBGM ([3]; Hepatitis): 0.89
Count ([3]; Hepatomegaly): 0
Count ([3]; Hepatosplenomegaly): 0
Count ([3]; INR increased): 1
EBGM ([3]; INR increased): 0.78
Count ([3]; Liver disorder): 2
EBGM ([3]; Liver disorder): 1.43
Count ([3]; Liver function test abnormal): 10
EBGM ([3]; Liver function test abnormal): 6.11
Count ([3]; Prothrombin time prolonged): 1
EBGM ([3]; Prothrombin time prolonged): 1.29
Count ([3]; Spider naevus): 0
Count ([3]; Transaminases increased): 2
EBGM ([3]; Transaminases increased): 1.96
EB05 ([3]; liver function test abnormal): 3.5
Kaplan-Meier estimate of survival ([4]; at 1 year): 93%
Kaplan-Meier estimate of survival ([4]; at 2 years): 85%
Kaplan-Meier estimate of survival ([4]; at 3 years): 79%
patients who died ([5]; ambrisentan n=329, placebo 4%): 8%
patients with a respiratory hospitalization ([5]; ambrisentan n=329, placebo 6%): 13%
patients with a decrease in FVC/DLCO ([5]; ambrisentan n=329, placebo 12%): 17%
risk of disease progression or death versus placebo ([5]; study terminated after 34 weeks): greater risk of disease progression or death
1-year risk of significant aminotransferase abnormalities [6]: < 3%
effect on hepatobiliary transporter activity [7]: less potent

Count ([3]; Ascites): 8
EBGM ([3]; Ascites): 3.60
Count ([3]; Bilirubin conjugated increased): 5
EBGM ([3]; Bilirubin conjugated increased): 13.91
Count [3, 12]: 46
EBGM [3, 12]: 18.79
Count ([3]; Blood bilirubin increased): 37
EBGM ([3]; Blood bilirubin increased): 18.75
Count [3, 13]: 2
EBGM [3, 13]: 3.28
Count ([3]; Hepatic congestion): 5
EBGM ([3]; Hepatic congestion): 13.18
Count ([3]; Hepatic encephalopathy): 1
EBGM ([3]; Hepatic encephalopathy): 1.00
Count ([3]; Hepatic enzyme increased): 0
Count ([3]; Hepatic failure): 3
EBGM ([3]; Hepatic failure): 1.07
Count ([3]; Hepatic function abnormal): 2
EBGM ([3]; Hepatic function abnormal): 0.91
Count ([3]; Hepatic infarction): 1
EBGM ([3]; Hepatic infarction): 1.44
Count ([3]; Hepatic steatosis): 0
Count ([3]; Hepatitis acute): 1
EBGM ([3]; Hepatitis acute): 1.04
Count ([3]; Hepatitis): 5
EBGM ([3]; Hepatitis): 1.63
Count ([3]; Hepatomegaly): 1
EBGM ([3]; Hepatomegaly): 0.79
Count ([3]; Hepatosplenomegaly): 2
EBGM ([3]; Hepatosplenomegaly): 2.09
Count ([3]; INR increased): 9
EBGM ([3]; INR increased): 3.08
Count ([3]; Liver disorder): 1
EBGM ([3]; Liver disorder): 0.56
Count ([3]; Liver function test abnormal): 38
EBGM ([3]; Liver function test abnormal): 9.59
Count ([3]; Prothrombin time prolonged): 2
EBGM ([3]; Prothrombin time prolonged): 1.22
Count ([3]; Spider naevus): 1
EBGM ([3]; Spider naevus): 1.46
Count ([3]; Transaminases increased): 5
EBGM ([3]; Transaminases increased): 3.58
EB05 ([3]; blood alkaline phosphate increased): 14.6
EB05 ([3]; liver function test abnormal): 6.9
IC50 [8]: > 100 µM
IC50 [9]: > 100 µM
Structure (SMILES): COc1ccccc1Oc1c(NS(=O)(=O)c2ccc(C(C)(C)C)cc2)nc(-c2ncccn2)nc1OCCO [Bosentan]
Count ([3]; ALT increased): 57
EBGM ([3]; ALT increased): 11.57
Count ([3]; AST increased): 60
EBGM ([3]; AST increased): 12.52
Count ([3]; Hepatic necrosis): 1
EBGM ([3]; Hepatic necrosis): 0.94
effect on hepatobiliary transporter activity [7]: decreased transporter activity to the greatest extent
